From patent US20250340525A1, “F[…] COMPOUND” ([…], INC., priority 2022, published 2025)

System: mice
Assay: Anesthetic activity: inhalation exposure of mice in a microcircuit, loss-of-righting-reflex (LORR)
Format: in vivo
Details: inhalation exposure to vaporized compound/air mixture circulated through microcircuit, dose not quantified
Method: A sample of the product mixture formed in Step 4 of the synthesis of Example 1, comprising both cis- and trans-isomers of TTD (the “TTD mixture”), was administered to mice via inhalation exposure in a microcircuit connected using unidirectional airflow valves to a CO2 absorbent chamber and a glass syringe. A small amount of liquid TTD mixture was transferred into the glass syringe where it volatilized. Mice were transferred to the small cylindrical chamber, and the glass syringe was connected to the microcircuit in series. […] Delivery of TTD mixture was discontinued, and the mice were allowed to recover.
Separately, the trans-isomer of TTD isolated in step 5 of Example 1 above was administered to mice via inhalation exposure in a microcircuit connected using unidirectional airflow valves to a CO2 absorbent chamber and a glass syringe. A small amount of the TTD was transferred into the glass syringe where it volatilized. Mice were transferred to the small cylindrical chamber, and the glass syringe was connected to the microcircuit in series. […] Delivery of the TTD was discontinued, and the mice were allowed to recover.

Q: For `F[C@@H]1OC(F)(C(F)(F)F)O[C@H]1F` (relative stereo) [trans-isomer of TTD, trans-2,4,5-trifluoro-2-trifluoromethyl-1,3-dioxolane], which “loss-of-righting-reflex (LORR) / anesthetic activity” value is on record?
A: indicated a loss-of-righting-reflex (LORR)

Q: How did the “loss-of-righting-reflex (LORR) / anesthetic activity” value turn out when `FC1OC(F)(C(F)(F)F)OC1F` (centres unmarked) [TTD mixture, 2,4,5-trifluoro-2-(trifluoromethyl)-1,3-dioxolane] was run?
A: indicated a loss-of-righting-reflex (LORR)
